# Results from BindingDB's records for patent US12065436 (Cytokinetics, 2024).
# Molecular target: T1, Myosin-7 (Bos taurus, UniProt Q9BE39)
# T1 construct: gene MYH7
# Assay: Myofibril Assays
# Description: To evaluate the effect of compounds on the ATPase activity of full-length cardiac myosin in the context of the native sarcomere, skinned myofibril assays were performed. Bovine cardiac myofibrils were obtained by homogenizing bovine cardiac left ventricular tissue in the presence of a detergent such as triton X-100. Such treatment removes membranes and a majority of the soluble cytoplasmic proteins but leaves intact the cardiac sarcomeric acto-myosin apparatus. Myofibril preparations retain the ability to hydrolyze ATP in an Ca2+ regulated manner. […] Small molecule agents were assessed for their ability to inhibit the steady-state ATPase activity of bovine cardiac myofibrils using pyruvate kinase and lactate dehydrogenase (PK/LDH)-coupled enzyme system. This assay regenerates myosin-produced ADP into ATP by oxidizing NADH, producing an absorbance change at 340 nm.
# T1 sequence (Q9BE39 whole entry, looked up): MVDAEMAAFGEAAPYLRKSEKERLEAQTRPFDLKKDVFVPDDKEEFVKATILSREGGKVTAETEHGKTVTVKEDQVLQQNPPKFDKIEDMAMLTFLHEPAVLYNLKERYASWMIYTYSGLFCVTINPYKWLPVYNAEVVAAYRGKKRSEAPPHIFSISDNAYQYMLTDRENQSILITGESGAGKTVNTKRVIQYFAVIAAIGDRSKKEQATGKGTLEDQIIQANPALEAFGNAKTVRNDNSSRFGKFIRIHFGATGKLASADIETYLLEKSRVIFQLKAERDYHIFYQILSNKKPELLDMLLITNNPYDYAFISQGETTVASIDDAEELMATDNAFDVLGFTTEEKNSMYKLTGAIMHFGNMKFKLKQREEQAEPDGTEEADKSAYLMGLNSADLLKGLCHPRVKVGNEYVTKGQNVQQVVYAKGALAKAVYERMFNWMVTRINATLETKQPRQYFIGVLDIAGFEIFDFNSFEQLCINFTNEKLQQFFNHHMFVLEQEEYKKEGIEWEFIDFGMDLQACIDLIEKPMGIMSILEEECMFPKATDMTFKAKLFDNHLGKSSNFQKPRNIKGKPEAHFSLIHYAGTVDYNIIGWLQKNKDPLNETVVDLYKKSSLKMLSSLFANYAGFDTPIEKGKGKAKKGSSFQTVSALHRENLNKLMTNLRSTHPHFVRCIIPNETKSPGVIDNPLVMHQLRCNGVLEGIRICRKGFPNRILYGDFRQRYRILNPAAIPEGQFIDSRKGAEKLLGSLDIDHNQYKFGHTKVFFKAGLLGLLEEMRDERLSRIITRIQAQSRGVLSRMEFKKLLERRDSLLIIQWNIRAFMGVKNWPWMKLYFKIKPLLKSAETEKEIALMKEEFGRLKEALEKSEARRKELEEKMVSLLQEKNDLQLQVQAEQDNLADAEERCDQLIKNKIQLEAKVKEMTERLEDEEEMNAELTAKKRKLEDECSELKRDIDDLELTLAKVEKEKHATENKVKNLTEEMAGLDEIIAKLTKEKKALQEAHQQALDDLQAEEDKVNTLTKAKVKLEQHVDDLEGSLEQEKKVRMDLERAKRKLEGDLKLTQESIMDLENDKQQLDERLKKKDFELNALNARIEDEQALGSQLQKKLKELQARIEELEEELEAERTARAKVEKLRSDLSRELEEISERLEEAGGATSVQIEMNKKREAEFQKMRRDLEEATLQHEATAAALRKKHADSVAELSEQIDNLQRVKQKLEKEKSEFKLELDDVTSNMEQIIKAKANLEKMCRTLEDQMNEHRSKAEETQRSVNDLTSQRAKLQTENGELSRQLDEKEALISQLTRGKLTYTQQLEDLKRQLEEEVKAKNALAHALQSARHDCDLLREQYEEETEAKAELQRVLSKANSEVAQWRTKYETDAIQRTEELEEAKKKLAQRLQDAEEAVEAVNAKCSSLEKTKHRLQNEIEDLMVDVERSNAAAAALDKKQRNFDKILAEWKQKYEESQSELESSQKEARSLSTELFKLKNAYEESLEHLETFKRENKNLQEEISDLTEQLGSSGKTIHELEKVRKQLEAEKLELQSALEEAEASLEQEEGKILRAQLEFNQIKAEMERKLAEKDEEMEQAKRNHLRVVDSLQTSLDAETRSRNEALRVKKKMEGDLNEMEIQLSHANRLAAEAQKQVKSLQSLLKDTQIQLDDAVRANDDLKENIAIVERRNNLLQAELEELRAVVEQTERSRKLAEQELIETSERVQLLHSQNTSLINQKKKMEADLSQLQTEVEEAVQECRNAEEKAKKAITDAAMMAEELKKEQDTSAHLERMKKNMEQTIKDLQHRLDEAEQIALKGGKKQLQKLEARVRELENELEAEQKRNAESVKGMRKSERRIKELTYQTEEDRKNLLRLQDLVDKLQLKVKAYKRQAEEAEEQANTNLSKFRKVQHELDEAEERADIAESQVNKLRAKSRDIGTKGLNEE
row,IC50,SMILES
1,14.9 µM,"Cc1nc(-c2ccc3c(c2)CCC3NC(=O)Nc2cnccn2)no1 (stereo not given) [US12065436, Compound 86]"
2,0.9 µM,"Cc1cnoc1C(=O)N[C@@H]1CCc2cc(-c3noc(C(F)F)n3)ccc21 [US12065436, Compound 93]"
3,5.8 µM,"Cc1cc(C(=O)NC2CCc3cc(-c4noc(C(F)F)n4)ccc32)on1 (stereo not given) [US12065436, Compound 102]"
4,2.2 µM,"Cc1cnoc1C(=O)NC1CCc2cc(-c3noc(C(F)F)n3)ccc21 (stereo not given) [US12065436, Compound 103]"
5,9.3 µM,"O=C(N[C@@H]1CCc2cc(-c3noc(C4CC4)n3)ccc21)C1CC1 [US12065436, Compound 318]"
6,0.8 µM,"CCc1cc(-c2ccc3c(c2)CC[C@H]3NC(=O)OC)no1 [US12065436, Compound 345]"
7,3.2 µM,"Cn1cc(C(=O)N[C@@H]2CCc3cc(-c4noc(C5CCC5)n4)ccc32)cn1 [US12065436, Compound 411]"
8,7.1 µM,"CCc1nc(-c2ccc3c(c2)CC[C@H]3NC(=O)c2cnn(C3CN(C(=O)OC(C)(C)C)C3)c2)no1 [US12065436, Compound 471]"
9,39.2 µM,"CCc1nc(-c2ccc3c(c2)CC[C@H]3NC(=O)c2cnn(C3CN(C(=O)OC)C3)c2)no1 [US12065436, Compound 480]"
10,5.8 µM,"COCc1nc(-c2ccc3c(c2)CC[C@H]3NC(=O)c2cnc(C)n2C)no1 [US12065436, Compound 691]"
